Each block holds one compound with its values, some of them ahead of it.
Assays:
Ester-to-amide = format: physicochemical; settings: for Rearrangement of ester to amide product: polar, protic solvents / aqueous HPLC conditions; for Rearrangement of ester to amide in dosing vehicle: 50% DMSO in saline
[1] = Oral bioavailability / serum pharmacokinetics study in mice; format: in vivo; settings: C57Bl/6, mouse; for clearance: iv
Hairless (Hr) gene = assay: Brain expression of Hairless; format: in vivo; settings: mice, brain Hr expression ED50
[2] = in vivo

Compound: 2-(methylamino)ethyl 2-(4-(4-hydroxy-3-methylbenzyl)-3,5-dimethylphenoxy)acetate [Compound 13]
Rearrangement of ester to amide product (Ester-to-amide): freely rearrange to their corresponding tertiary amides

Compound: CNCC(C)OC(=O)COc1cc(C)c(Cc2ccc(O)c(C(C)C)c2)c(C)c1 (centres unmarked) [Compound 7, 1-(methylamino) propan-2-yl 2-(4-(4-hydroxy-3-isopropylbenzyl)-3,5-dimethylphenoxy) acetate]
Rearrangement of ester to amide product (Ester-to-amide): freely rearrange to their corresponding tertiary amides

Compound: Cc1cc(OCC(=O)OC(CN)C(C)C)cc(C)c1Cc1ccc(O)c(C(C)C)c1 (centres unmarked) [Compound 11, 1-amino-3-methylbutan-2-yl 2-(4-(4-hydroxy-3-isopropylbenzyl)-3,5-dimethylphenoxy)acetate]
Rearrangement of ester to amide in dosing vehicle (Ester-to-amide): do not rearrange to amides
Rearrangement of ester to amide product (Ester-to-amide): did not display rearrangement to the amide product

Second part, led by results:

clearance ([1]; serum, 3.05 μmol/kg): 8 mL/min/kg
Compound: Cc1cc(OCC(=O)O)cc(C)c1Cc1ccc(O)c(C(C)C)c1 [Compound 1, Sobetirome, reference compound]

Amount of sobetirome from cleavage of 3 in blood, oral vs intravenous dosing ([1]; in vivo): 2.4 fold
clearance ([1]; in vivo): 28 mL/min/kg
Species in chromatogram on re-sampling the same solution (Ester-to-amide; aqueous HPLC sample, approximately 30 minutes later): showed only the amide 3b
Fraction of ester converted to amide (Ester-to-amide; aqueous HPLC sample/run conditions, within 5 minutes of running): approximately 25%
Fold increase of sobetirome exposure (AUC) in brain vs equimolar sobetirome ([2]; male, C57Bl/6, mouse): ~ 2 fold
Fold reduction of parent drug exposure in heart vs equimolar sobetirome ([2]; male, C57Bl/6, mouse): ~ 3 fold
Fold reduction of parent drug exposure in kidney vs equimolar sobetirome ([2]; male, C57Bl/6, mouse): ~ 2 fold
Fold reduction of parent drug exposure in liver vs equimolar sobetirome ([2]; male, C57Bl/6, mouse): ~ 2 fold
Fold reduction of parent drug exposure in serum vs equimolar sobetirome ([2]; male, C57Bl/6, mouse): ~ 3.5 fold
Time of Cmax / Tmax in all tissues analyzed ([2]; mouse, ip): 15 to 30 min
Compound: Cc1cc(OCC(=O)O[C@@H](C)CN)cc(C)c1Cc1ccc(O)c(C(C)C)c1 [Compound 3, (S)-1-aminopropan-2-yl 2-(4-(4-hydroxy-3-isopropylbenzyl)-3,5-dimethylphenoxy)acetate]
Fold increase in potency compared to sobetirome (Hairless (Hr) gene): ~2 fold

Rearrangement of ester to amide in dosing vehicle (Ester-to-amide): do not rearrange to amides
Compound: CNCC(OC(=O)COc1cc(C)c(Cc2ccc(O)c(C(C)C)c2)c(C)c1)C(C)C (centres unmarked) [Compound 12, 3-methyl-1-(methylamino)butan-2-yl 2-(4-(4-hydroxy-3-isopropylbenzyl)-3,5-dimethylphenoxy)acetate]
Rearrangement of ester to amide product (Ester-to-amide): did not display rearrangement to the amide product

Rearrangement of ester to amide in dosing vehicle (Ester-to-amide): do not rearrange to amides
Compound: Cc1cc(OCC(=O)OC2(C(F)(F)F)CNC2)cc(C)c1Cc1ccc(O)c(C(C)C)c1 [Compound 15]
Rearrangement of ester to amide product (Ester-to-amide): did not display rearrangement to the amide product
